According to patent publication US10869924B2, “PD-L1 antagonist combination treatments” (MERCK PATENT GMBH, priority 2015, dated 2020):

Experiments:
MC38 tumors = test: Flow cytometry of tumor-infiltrating lymphocytes from MC38 tumors after treatment (Example 3); assay type: in vivo, mouse; conditions: TILs isolated from MC38 tumors after treatment
Source text: Antibodies used for cell surface or intracellular staining were purchased from BD Biosciences or eBioscience. They were rat anti-mouse CD4-PerCP-Cy5.5 (clone RM4-5, BD Biosciences), rat anti-mouse CD8a-APC-H7 (clone 53-6.7, BD Biosciences), rat anti-mouse CD25-PE-Cy7 (clone PC61, BD Biosciences), rat anti-mouse CD45-BV510 (clone 30-F11, BD Biosciences), rat anti-mouse CD90.2-FITC (clone 53-2.1, BD Biosciences), rat anti-mouse Eomes-PE (clone: Dan11mag, eBioscience), rat anti-mouse FoxP3-eFluor450 (clone FJK-16s, eBioscience), and rat anti-mouse NKp46-BV421 or -AF647 (clone 29A1.4, BD Biosciences). Live cells were separated from dead cells using LIVE/DEAD Fixable Blue Dead Cell Stain Kit (Invitrogen). […]
An aliquot of cells was pre-incubated with 10 μg/mL of mouse BD Fc Block (BD Biosciences) for 10 minutes before phenotyping mAbs were added to specifically stain immune cells. […] After removing unbound mAbs, cells were washed twice with FACS staining buffer, fixed in fixative buffer (PBS+2% FBS+1% paraformaldehyde), and stored at 4° C. in the dark until analyzed by flow cytometry. […] Flow cytometry data were acquired using LSR Fortessa (BD Biosciences) and analyzed using FlowJo (TreeStar Inc.).
Results were expressed as mean±SEM. […]
Tumor-infiltrating lymphocytes (TILs) were isolated from MC38 tumors after treatment and analyzed for markers associated with anti-tumor immune response. […]

B16F10 melanoma = test: Subcutaneous B16F10 melanoma model, anti-4-1BB and avelumab (Example 3); assay type: in vivo; conditions: anti-4-1BB 0.1 mg/mL, avelumab 1 mg/mL, 0.2 mL per mouse ip, 3 doses 3 to 4 days apart, C57BL/6 mice
Method: Six (6)- to 8-week old female C57BL/6 mice were purchased from the Jackson Laboratories. All animals were housed in a pathogen free vivarium facility at Rinat and experiments were conducted according to the protocols in accordance with the Institutional Animal Care and Use Committee (IACUC) guidelines.
The B16F10 melanoma cell line was purchased from American Type Culture Collection (ATCC). The MC38 colon carcinoma cell line was kindly provided by Dr. Antoni Ribas at University of California, Los Angeles, Calif. Cells were cultured in Dulbecco's Modified Eagle's Medium (DMEM) supplemented with 10% fetal bovine serum (FBS), 2 mM L-glutamine at 37° C. in 5% carbon dioxide (CO2), and IMPACT-tested for pathogens at Research Animal Diagnostic Laboratory (RADIL) (Columbia, Mo.). Pathogen-free cells growing in an exponential growth phase were harvested and used for tumor inoculation.
Therapeutic mouse anti-mouse 4-1BB mAb (mouse immunoglobulin G1 [mIgG1]), derived from the parental clone MAB9371 (R&D Systems), was prepared in-house. Avelumab was provided by Merck Serono. Isotype control mIgG1 (clone: MOPC-21) was purchased from BioXcell. Human IgG1 was prepared in-house. Anti-4-1BB and avelumab were diluted to concentrations of 0.1 mg/mL and 1 mg/mL, respectively, in phosphate buffered saline (PBS) (Life Technologies), and dosed at 0.2 mL per mouse intraperitoneally (ip) for 3 doses 3 to 4 days apart.
C57BL/6 mice were inoculated subcutaneously at the right flank with 0.2×10^6 B16F10 or 0.5×10^6 MC38 cells in 0.1 mL of serum-free DMEM. When tumors reached target size, mice were randomized into treatment groups. Treatment was started on the same day as randomization. Tumor size was measured twice weekly in 2 dimensions using a caliper, and the volume was expressed in cubic millimeters using the formula: V=0.5 L×W^2 where L is the longest diameter of the tumor and W is the diameter perpendicular to L. Body weight was recorded weekly.
Results were expressed as mean±SEM. Statistical analyses were performed using GraphPad Prism 6.0. One-way or 2-way ANOVA was applied to compare the statistical differences among multiple groups relative to the isotype control. P<0.05 was considered as significant difference.
Two murine models were used to evaluate the therapeutic efficacy of anti-4-1BB in combination with avelumab. In the B16F10 melanoma model, the average starting tumor size was 67 to 78 mm^3 (range 44 to 114 mm^3; n=7 animals per group) (Table 5). By Day 26 post tumor inoculation, the tumors for isotype, anti-4-1BB alone, and avelumab alone groups reached an average of 1206±397 mm^3, 1979±425 mm^3, and 2112±429 mm^3, respectively (Table 5). By contrast, dramatic tumor suppression (average of 341±146 mm^3) was observed when animals were administered with anti-4-1BB and avelumab concurrently (p<0.0001 vs single agent alone groups) (Table 5).

[1] = in vivo; cited from earlier work

Avelumab: fully human mAb of the IgG1 isotype that specifically targets and blocks PD-L1
ratio of CD8+ T cells/regulatory T cell (Treg) (MC38 tumors; FIG. 2): 2.5 | T-cell frequency (of CD45+ cells) in tumors (MC38 tumors; average, FIG. 1): 36% | Tumor Measurements of Subcutaneous B16F10 Melanoma, Mean tumor volume (B16F10 melanoma; Day 13 post tumor inoculation (starting tumor size)): 78 mm^3 | Tumor Measurements of Subcutaneous B16F10 Melanoma, Mean tumor volume (B16F10 melanoma; Day 17 post tumor inoculation): 327 mm^3 | Tumor Measurements of Subcutaneous B16F10 Melanoma, Mean tumor volume (B16F10 melanoma; Day 20 post tumor inoculation): 654 mm^3 | Tumor Measurements of Subcutaneous B16F10 Melanoma, Mean tumor volume (B16F10 melanoma; Day 24 post tumor inoculation): 1304 mm^3 | Tumor Measurements of Subcutaneous B16F10 Melanoma, Mean tumor volume (B16F10 melanoma; Day 26 post tumor inoculation): 2112 mm^3 | Tumor Measurements of Subcutaneous B16F10 Melanoma, Mean tumor volume (B16F10 melanoma; Day 26 post tumor inoculation, listed as avelumab): 2112±429 mm^3 | half-life [1]: 72 to 120 h
